Experiments:
[1] = tested on: BON cells; test: Subcutaneous GI carcinoid xenograft study; format: in vivo, mice; conditions: 366 mg/kg daily i.p., 20 days
Experimental: Xenograft Studies BON cells (1×10^6) were suspended in Hanks' balanced salt solution (Invitrogen) and injected subcutaneously into the right flank of 12 male nude athymic NU/NU mice (Charles River Laboratories, Wilmington, Mass.) under anesthesia. After palpable tumors developed, the mice were divided into 2 groups of 6 animals. The control group received daily intraperitoneal (i.p.) injections of saline while the treatment group received daily i.p. injections of VPA (366 mg/kg) for 20 days. The length and width of tumors were measured with a vernier caliper every 4 days and tumor volumes were calculated using the formula, volume=width^2×length×0.52. At the end of the experiment the mice were sacrificed and the tumors were resected and frozen in liquid nitrogen. Whole tumor cell protein lysates were prepared for immunoblotting as previously described (Vaccaro A et al., In-vivo activation of Raf-1 inhibits tumor growth and development in a xenograft model of human medullary thyroid cancer. Anticancer Drugs 2006; 17:849-853). This experiment was performed in accordance with the protocols of the University of Wisconsin Medical School Animal Care and Use Committee.

[2] = human patients treated for epilepsy; cited from earlier work
[3] = tested on: BON human GI carcinoid cancer cells; test: Western blot analysis of GI carcinoid cells; format: cell-based
Experimental: Cell Culture BON human GI carcinoid cancer cells, kindly provided by Drs. B. Mark Evers and Courtney M. Townsend, Jr.
Total protein concentrations were quantified with a bicinchoninic acid assay kit (Pierce Biotechnology, Rockford, Ill., USA). Denatured cellular extracts were resolved by SDS-PAGE, transferred to nitrocellulose membranes (Schleicher and Schuell, Keene, N.H., USA), blocked in milk, and incubated with appropriate antibodies. The antibody dilutions were: 1:1,000 for Notch1 (Santa Cruz Biotechnology, Santa Cruz, Calif., USA), mammalian achaete-scute homolog 1 (ASCL1; BD Biosciences, San Diego, Calif., USA), chromogranin A (Zymed Laboratories, San Francisco, Calif., USA), and cyclin D1 (Cell Signaling Technology, Danvers, Mass., USA), 1:2,000 for p21 (Cell Signaling Technology) and p27 (Santa Cruz Biotechnology), and 1:10,000 for glyceraldehyde-3-phosphate dehydrogenase (G3PDH; Trevigen, Gaithersburg, Md., USA). Horseradish peroxidase conjugated goat anti-rabbit or goat anti-mouse secondary antibodies (Pierce Biotechnology) were used depending on the source of the primary antibody. For visualization of the protein signal, Immunstar (Bio-Rad Laboratories, Hercules, Calif., USA) or SuperSignal West Femto (Pierce Biotechnology) kits were used per the manufacturer's instructions.
Cell Culture BON human gastrointestinal (GI) carcinoid tumor cells, kindly provided by Drs. B. Mark Evers and Courtney M. Townsend, Jr.
Total protein concentrations were quantified with a bicinchoninic acid assay kit (Pierce Biotechnology, Rockford, Ill.). Denatured cellular extracts were resolved by SDS-PAGE, transferred onto nitrocellulose membranes (Schleicher and Schuell, Keene, N H), blocked in milk, and incubated with appropriate antibodies. The antibody dilutions were: 1:1,000 for Notch1 (Santa Cruz Biotechnology, Santa Cruz, Calif.), mammalian achaete-scute homolog 1 (ASCL1; BD Biosciences, San Diego, Calif.), chromogranin A (Zymed Laboratories, San Francisco, Calif.), and cyclin D1 (Cell Signaling Technology, Danvers, Mass.), 1:2,000 for p21 (Cell Signaling Technology) and p27 (Santa Cruz Biotechnology), and 1:10,000 for glyceraldehyde-3-phosphate dehydrogenase (G3PDH; Trevigen, Gaithersburg, Md.). Horseradish peroxidase conjugated goat anti-rabbit or goat anti-mouse secondary antibodies (Pierce Biotechnology) were used depending on the source of the primary antibody. For visualization of the protein signal, Immunstar (Bio-Rad Laboratories, Hercules, Calif.) or SuperSignal West Femto (Pierce Biotechnology) kits were used per the manufacturer's instructions.

[4] = tested on: H727 human lung carcinoid cancer cells; test: Western blot analysis of pulmonary carcinoid cells; format: cell-based
[5] = tested on: Notch1; test: CBF1 binding site luciferase reporter assay; format: cell-based, human; conditions: GI carcinoid cells, VPA 48 hours
Experimental: Luciferase Reporter Assays GI carcinoid tumor cells were transiently transfected with luciferase constructs as previously described (Kunnimalaiyaan, M. et al., Conservation of the Notch1 signaling pathway in gastrointestinal carcinoid cells A J Physiol Gastrointest Liver Physiol 2005; 289:G636-642). Wild-type (4xwtCBF1Luc; 2 μg) or mutant (4xmutCBF1Luc; 2 μg) CBF1-luciferase reporter plasmids were co-transfected with CMV-β-gal (0.5 μg) (Hsieh J J et al., Truncated Mammalian Notch1 Activates CBF1/RBPJk-Repressed Genes by a Mechanism Resembling That of Epstein-Barr Virus EBNA2. Mol Cell Biol 1996; 16:952-959). In experiments with the γ-secretase inhibitor, N-[N-(3,5-difluorophenacetyl)-L-alanyl]-S-phenylglycine t-butyl ester (DAPT; EMD Biosciences, Darmstadt, Germany), to inhibit Notch1 cleavage and activation, cells were pretreated for 45 minutes with DAPT (50 μM) then treated with 4 mM VPA. […] Luciferase levels were measured using a Monolight 2010 Luminometer (Analytical Luminescence Laboratory, San Diego, Calif.). […]

[6] = tested on: BON GI carcinoid cells; test: Flow cytometry cell cycle analysis; format: cell-based, human; conditions: VPA
Experimental: Flow Cytometry GI carcinoid cells treated with or without VPA were labeled for 1 hour with 10 μM bromodeoxyuridine (Sigma-Aldrich) and counter-stained with 50 μg/ml propidium iodide and analyzed by two-dimensional flow cytometry (FACSCalibur flow cytometer; BD Biosciences) to detect both fluorescein and propidium iodide as previously described (Hirai, H. et al., Involvement of cell cycle progression in survival signaling through CD40 in the B-lymphocyte line WEHI-231. Cell Death Differ 2004; 11:261-269). Results were analyzed with FlowJo software (Tree Star, Ashland, Oreg.).

Structure (SMILES): CCCC(CCC)C(=O)O [VPA, 2-propylpentanoic acid]
- growth of the tumors [1]: almost static
- neurotoxicity [1]: no signs of neurotoxicity
- expression of ASCL1 in resected tumors ([1]; Western blot): decreased expression
- therapeutic range [2]: 50 to 125 µg/mL
- ASCL1 protein ([3]; VPA): dose-dependent decrease
- full-length Notch1 and NICD ([3]; VPA 0-4 mM, 2 days): increase
- protein levels of p21 and p27 ([3]; VPA 1 mM): increase in protein levels
- cyclin D1 level ([3]; VPA 4 mM, 4 days): almost undetectable
- protein levels of CgA ([3]; VPA, two days): decreased
- ASCL1 protein ([4]; VPA): dose-dependent decrease
- full-length Notch1 and NICD ([4]; VPA 0-4 mM, 2 days): increase
- ASCL1 protein ([4]; VPA 4 mM, 2 days): undetectable levels
- protein levels of CgA ([4]; VPA, two days): decreased
- increase in CBF1 luciferase activity [5]: 5 fold
- cells in the S phase [6]: decrease
- percentage of cells in the G1 phase [6]: dose-dependent increase

— patent US8338482B2, “Modulating notch1 signaling pathway for treating neuroendocrine tumors” (Wisconsin Alumni Research Foundation, priority 2007, dated 2012)
